# Measurements published in paper doi:10.1101/2025.09.24.678246 (bioRxiv, 2025).
# Where “and” joins values, the source holds several entries; their conditions need not be identical. Identical values can stand only once. Entries after “also recorded” stand apart in the source; their conditions may differ. Like-named read-outs stand apart in the source and are kept apart here.
# Legend:
# [1] = system: drug sensitive and resistant Mtb isolates; experiment: microbe, parasite or virus in culture; type: cell-based; details: Mycobacterium tuberculosis
# [2] = system: H37Rv ΔbioA TetON-1 (BioA-OE); type: cell-based; details: for normalized growth (no drug = 100): Fig. 2C, BioA-OE
# [3] = system: H37Rv ΔbioA TetON-5 (BioA-UE); type: cell-based; details: Fig. 2C
# [4] = system: WT H37Rv; type: cell-based, Mycobacterium tuberculosis
# [5] = system: C48-resistant Mtb H37Rv mutants; type: cell-based, Mycobacterium tuberculosis; details: for susceptibility of C48-resistant mutants: compared with parent strain
# [6] = M. tb CRC clinical strain K5072429, DS
structure (smiles),measurement,setting,value
"CC(=O)NC[C@H]1CN(c2ccc(N3CCOCC3)c(F)c2)C(=O)O1 [Linezolid, reference compound]",MIC,"[1]; M. tb CDC1551, DS",1.2 µM
same,MIC,[1]; [6],1.2 µM
same,MIC,"[1]; M. tb Erdman, DS",1.6 µM
same,MIC,"[1]; M. tb K03b00DS, DS",2.3 µM
same,MIC,"[1]; M. tb K04b00DS, DS",1.2 µM
same,MIC,"[1]; M. tb K07b00DS, DS",2.3 µM
same,MIC,"[1]; M. tb K09b00DS, DS",1.2 µM
same,MIC,"[1]; M. tb K13b00DS, DS",1.2 µM
same,MIC,"[1]; M. tb K14b00DS, DS",1.2 µM
same,MIC,"[1]; M. tb K35b00DS, DS",1.2 µM
same,MIC,"[1]; M. tb NIH_G1DS, DS",2.3 µM
same,MIC,"[1]; M. tb NIH_G9R, DR",2.3 µM
same,MIC,"[1]; M. tb NIH_G11R, DR",2.3 µM
same,MIC,"[1]; M. tb NIH_G12, DS",2.3 µM
same,MIC,"[1]; M. tb NIH_G16R, DR",3.13 µM
same,MIC,"[1]; M. tb NIH_G17R, DR",3.13 µM
same,MIC,"[1]; M. tb NIH_G22R, DR",3.13 µM
same,MIC,"[1]; M. tb NIH_GA36, DS",1.6 µM
O=C1CCc2cc(N3CCN(C(=O)c4ccc(F)c(Br)c4)CC3)ncc21 [C48],potency with increasing expression of BioA,[2]; ATc-inducible BioA overexpression,decreases monotonically
same,normalized growth (no drug = 100),[2]; [C48] 0.02 µM,99.1764 and 99.8577 and 98.7033
same,normalized growth (no drug = 100),[2]; [C48] 0.0434 µM,95.2869 and 101.385 and 96.6682
same,normalized growth (no drug = 100),[2]; [C48] 0.0941 µM,94.175 and 96.4099 and 95.7333
same,normalized growth (no drug = 100),[2]; [C48] 0.204 µM,92.9284 and 86.8526 and 87.9532
same,normalized growth (no drug = 100),[2]; [C48] 0.443 µM,34.2705 and 25.7913 and 36.1572
same,normalized growth (no drug = 100),[2]; [C48] 0.96 µM,3.4759 and 3.24 and 3.555
same,normalized growth (no drug = 100),[2]; [C48] 4.52 µM,1.679 and 2.083 and 1.432
same,normalized growth (no drug = 100),[2]; [C48] 21.3 µM,2.409 and 2.139 and 2.1956
same,normalized growth (no drug = 100),[2]; [C48] 46.1 µM,1.96 and 2.297 and 2.072
same,normalized growth (no drug = 100),[2]; [C48] 100 µM,1.477 and 2.083 and 1.862
same,normalized growth (no drug = 100),[3]; [C48] 0.02 µM,85.8582 and 52.7583 and 51.6425
same,normalized growth (no drug = 100),[3]; [C48] 0.0434 µM,81.0305 and 46.7008 and 49.5132
same,normalized growth (no drug = 100),[3]; [C48] 0.443 µM,0.2448 and 0.3701 and 0.3017
same,normalized growth (no drug = 100),[3]; [C48] 4.52 µM,0.6433 and 0.5522 and 0.8369
same,normalized growth (no drug = 100),[3]; [C48] 21.3 µM,0.723 and 0.8369 and 1.008
same,normalized growth (no drug = 100),[3]; [C48] 46.1 µM,1.133 and 0.9394 and 1.076
same,normalized growth (no drug = 100),[3]; [C48] 100 µM,0.9037 and 0.9849 and 0.9735
same,frequency of spontaneously resistant mutants,[4],approximately 3×10^−8
same,MIC shift compared to WT,[5],Large; also recorded: Medium
same,increase in MIC of 30 resistant mutants compared to WT H37Rv,[5],approximately 300 fold
same,resistance level of bioA mutant Met91Ile,[5],high-level resistance
same,"resistance level of bioA mutants Met91Val, Met91Thr, Cys168Tyr",[5],medium-level resistance
same,MIC,[1]; [6],< 0.024 µM
same,MIC,"[1]; M. tb Erdman, DS",0.024 µM
same,MIC,"[1]; M. tb HN878, DS",0.0156 µM
same,MIC,"[1]; M. tb K03b00DS, DS",0.047 µM
same,MIC,"[1]; M. tb K04b00DS, DS",0.023 µM
same,MIC,"[1]; M. tb K05b00DS, DS",0.0156 µM
same,MIC,"[1]; M. tb K07b00DS, DS",0.023 µM
same,MIC,"[1]; M. tb K08b00DS, DS",< 0.024 µM
same,MIC,"[1]; M. tb K09b00DS, DS",0.023 µM
same,MIC,"[1]; M. tb K10b00DS, DS",< 0.024 µM
same,MIC,"[1]; M. tb K11b00DS, DS",0.0625 µM
same,MIC,"[1]; M. tb K12b00DS, DS",0.023 µM
same,MIC,"[1]; M. tb K13b00DS, DS",0.023 µM
same,MIC,"[1]; M. tb K14b00DS, DS",0.0156 µM
same,MIC,"[1]; M. tb K15b00DS, DS",< 0.024 µM
same,MIC,"[1]; M. tb K16b00DS, DS",< 0.024 µM
same,MIC,"[1]; M. tb K17b00DS, DS",< 0.024 µM
same,MIC,"[1]; M. tb K35b00DS, DS",< 0.024 µM
same,MIC,"[1]; M. tb NIH1B314, DR",0.0313 µM
same,MIC,"[1]; M. tb NIH_G1DS, DS",< 0.024 µM
same,MIC,"[1]; M. tb NIH_G9R, DR",0.0156 µM
same,MIC,"[1]; M. tb NIH_G10R, DR",0.0313 µM
same,MIC,"[1]; M. tb NIH_G11R, DR",0.0156 µM
same,MIC,"[1]; M. tb NIH_G12, DS",< 0.024 µM
same,MIC,"[1]; M. tb NIH_G16R, DR",< 0.024 µM
same,MIC,"[1]; M. tb NIH_G17R, DR",< 0.024 µM
same,MIC,"[1]; M. tb NIH_G22R, DR",< 0.024 µM
same,MIC,"[1]; M. tb NIH_GA36, DS",< 0.024 µM
same,MIC,"[1]; M. tb NIH_SA3, DS",< 0.024 µM
same,MIC,"[1]; M. tb NIH_SA23, DS",< 0.024 µM
same,MIC,"[1]; M. tb NIH_SA27, DS",< 0.024 µM
same,MIC,"[1]; M. tb NIH_SA39, DS",< 0.024 µM
same,MIC,"[1]; M. tb NIH_SA43, DS",< 0.024 µM
same,MIC,"[1]; M. tb NIH_SA125, DS",< 0.024 µM
"NNC(=O)c1ccncc1 [INH, isoniazid, reference compound]",susceptibility of C48-resistant mutants,[5],retained susceptibility
"CO[C@H]1/C=C/O[C@@]2(C)Oc3c(C)c(O)c4c(O)c(c(/C=N/N5CCN(C)CC5)c(O)c4c3C2=O)NC(=O)/C(C)=C\C=C\[C@H](C)[C@H](O)[C@@H](C)[C@@H](O)[C@@H](C)[C@H](OC(C)=O)[C@@H]1C [Rifampicin, rifampicin, reference compound]",susceptibility of C48-resistant mutants,[5],retained susceptibility
